Measured values from publication PMC7531004, “Discovery of gramicidin A analogues with altered activities by multidimensional screening of a one-bead-one-compound library” (Nature Communications, 2020).
Like-named read-outs stand apart in the source and are kept apart here. Where a SMILES comes first, the peptide text is derived from it. [ ]: non-standard residue; d: D form. The star is where a group is joined. NHCH2CH2OH = OCCN*; For = O=C*

Assays:
[1] = system: Enterococcus faecalis JCM5803; conditions: for antibacterial activity/MIC: E. faecalis; for Antibacterial activity MIC: JCM5803
Description: (§1) Third, 1 was subjected to five pathogenic Gram-positive bacteria.
(§2) Evaluation of antibacterial spectra of purified peptides. The MIC assay was performed according to the Clinical and Laboratory Standards Institute protocols. The antibacterial activities of the purified peptides A1, B01–B04, B11–B13, B21, and B22 were measured using the broth microdilution method. 6 Serial dilutions of the peptides were prepared in cation adjusted Mueller Hinton Broth. Each dilution (100 µL) was dispensed to each well of the round-bottom plate to obtain final concentrations ranging from 64 µg/mL to 0.00024 µg/mL. Bacteria were grown at 37 °C overnight on Tryptic Soy Broth or Mueller Hinton Broth agar plates.
(§3) The bacterial colonies were suspended in 0.9% saline to obtain OD 625 of 0.08–0.13 using a spectrophotometer UV-1280 (Shimadzu). The resultant suspension was diluted with cation adjusted Mueller Hinton Broth (1/20). The resultant mixture (10 .0 µL) was inoculated to each well of the plates (approximately 5 × 10^4 CFU/well), mixed, and incubated at 37 °C for 18–24 h. The MIC value was determined as the minimum concentration that inhibited growth of bacteria. For Streptococcus species, cation adjusted Mueller Hinton Broth supplemented with 5% laked horse blood was used. […]

[2] = system: Streptococcus pyogenes SSI-9; conditions: for antibacterial activity/MIC: S. pyogenes; for Antibacterial activity MIC: SSI-9
Description: as §1, §2, §3

[3] = system: Streptococcus agalactiae JCM5671; conditions: for Antibacterial activity MIC: JCM5671; for antibacterial activity/MIC: S. agalactiae
Description: as §1, §2, §3

[4] = system: Listeria monocytogenes 10403S; conditions: for antibacterial activity/MIC: L. monocytogenes; for Antibacterial activity MIC: 10403S
Description: as §1, §2, §3

[5] = system: Streptococcus pneumoniae NBRC 102642; conditions: for Antibacterial activity MIC: NBRC 102642; for antibacterial activity/MIC: S. pneumoniae
Description: as §1, §2, §3

[6] = Description: (§4) Second, we examined the cytotoxicity toward mammalian cancer cells and hemolytic activity of 1. […] Hemolytic activity was evaluated by monitoring hemoglobin leakage from rabbit red blood cells as a consequence of membrane damage. The concentration of 1 required to cause 10% hemoglobin leakage (HC10) was 160 nM. Thus, the P388 cytotoxicity of 1 was 28-fold more sensitive than its hemolytic activity.
Mammalian cytotoxicity assay of purified peptides.
B22 was diluted with the growth medium with 2% DMSO to various concentrations as 5-fold serial dilution.
The collected cells were resuspended into
the growth medium at 2 × 10^4 cells/mL. Aliquots of the former medium (2% DMSO, 100 µL) containing
peptides and the latter medium containing P388 cells (100 µL) were mixed in a 96-well cell culture plate
(TR5003, TrueLine). The final concentration of P388 cells and DMSO were 1 × 10^4 cells/mL and 1%,
respectively. […]
were determined by WST -1 assay. A solution of 1-methoxy PMS and WST-1 in the growth medium
(1-methoxy PMS 0.70 mg/mL in Milli-Q/WST-1 3.6 mg/mL in pH 7.4 HEPES buffer = 1/9) was added to
each well of the plate (20.0 µL/well). The cells were incubated for 4 h under atmosphere of 5% CO 2 at
37 °C. The absorbance of each well at 415 nm was measured using a Benchmark microplate reader
(Bio-Rad) or Thermo Scientifi c Multiskan GO (Thermo Fisher Scientific). The cytotoxicities of the purified
peptides were evaluated as IC 50 (nM) by means of three replicates. Sigmoidal curve fittings were performed

[7] = system: rabbit red blood cells; conditions: red cells of rabbit, 2 h
Description: as §4
Hemolysis assay of purified peptides. […]
with DMSO to various concentrations as 3-fold serial dilution. A 50% suspension of rabbit blood in Alsever's solution was obtained from Nippon Bio -Supp. Center . The blood suspension (250 µL) w as diluted with phosphate buffered saline (no calcium, no magnesium, 1.00 mL). The resultant suspension was centrifuged at 1000 × g for 3 min at 8 °C. The supernatant was discarded, and the collected cells were resuspended in phosphate buffered saline (no calcium, no magnesium, 1.00 mL). The same procedure was repeated (× 3). The resultant suspension (100 µL) was diluted with phosphate buffered saline (no calcium, no magnesium, 4.90 mL) to give 0.2% red blood cells suspension. The 0.2% red blood cells suspension (95.0 µL) and each dilution series of the purified peptide in DMSO (5 .0 µL) were mixed in 2 mL microtube.
supernatant was transferred to a 96-well plate (TR5003, TrueLine). The absorbance of each well at 415 nm was measured using a Thermo Scientific Multiskan GO (Thermo Fisher Scientific). The mixture of Triton X-100/H2O (5/95, 2.0 µL), DMSO (5.0 µL), and the 0.2% red blood cells suspension (95.0 µL) was used to determine 100% hemolysis. The mixture of DMSO (5.0 µL) and the 0.2% red blood cells suspension (95.0 µL) was used to determine 0% hemolysis. The hemolytic activities of tested peptides ( I) were normalized against 100% hemolysis by Triton X -100 (Imax) and 0% hemolysis by DMSO (I0) according to Supplementary Equation 3, where Ix is the UV absorbance.
I = 100 × (Ix – I0) / (Imax – I0) (3)
The hemolytic activities of the purified peptides were evaluated as the concentrations causing 10% hemolysis (HC10, nM) by means of three replicates. Sigmoidal curve fittings were performed on GraphPad Prism (GraphPad software, Supplementary Figure 7).

[8] = IC50, mammalian cytotoxicity assay
[9] = cytotoxicity against P388 cells/IC50

SMILES | antibacterial activity/MIC [1] [µg/mL] | Antibacterial activity MIC [1] [µM] | antibacterial activity/MIC [2] [µg/mL] | Antibacterial activity MIC [2] [µM] | Antibacterial activity MIC [3] [µM] | antibacterial activity/MIC [3] [µg/mL] | antibacterial activity/MIC [4] [µg/mL] | Antibacterial activity MIC [5] [µM] | antibacterial activity/MIC [5] [µg/mL] | IC50 [6, 8] [nM] | Hemolytic activity HC10 (concentration causing 10% hemolysis) [7] [nM] | Antibacterial activity MIC [4] [µM] | IC50 ([6]; Cytotoxicity IC50) [nM] | IC50 [6, 9] [nM]
CC(C)C[C@@H](NC(=O)[C@H](C)NC(=O)CNC(=O)[C@@H](NC=O)C(C)C)C(=O)N[C@@H](C)C(=O)N[C@@H](C(=O)N[C@H](C(=O)N[C@@H](C(=O)N[C@@H](Cc1c[nH]c2ccccc12)C(=O)N[C@H](CC(C)C)C(=O)N[C@@H](Cc1c[nH]c2ccccc12)C(=O)N[C@H](CC(C)C)C(=O)N[C@@H](Cc1c[nH]c2ccccc12)C(=O)N[C@H](CC(C)C)C(=O)N[C@@H](Cc1c[nH]c2ccccc12)C(=O)NCCO)[C@H](C)O)C(C)C)C(C)C [B13] (For-VGA[dL]A[dV]V[dT]W[dL]W[dL]W[dL]W-NHCH2CH2OH) | 4 | 2.1 | 1 | 0.53 | 4.2 | 8 | 2 | 0.033 | 0.063 | > 1000 | > 3000 | – | – | –
CNC(=O)C[C@@H](NC(=O)[C@@H](NC(=O)[C@@H](CC(C)C)NC(=O)[C@H](C)NC(=O)[C@@H](CC(C)C)NC(=O)[C@H](C)NC(=O)CNC(=O)[C@@H](NC=O)C(C)C)C(C)C)C(=O)N[C@@H](Cc1c[nH]c2ccccc12)C(=O)N[C@H](CC(C)C)C(=O)N[C@@H](Cc1c[nH]c2ccccc12)C(=O)N[C@H](CC(C)C)C(=O)N[C@@H](Cc1c[nH]c2ccccc12)C(=O)N[C@@H](C(=O)N[C@@H](Cc1c[nH]c2ccccc12)C(=O)NCCO)[C@H](C)O [B22] (For-VGA[dL]A[dL]V[dD](NHMe)W[dL]W[dL]W[dT]W-NHCH2CH2OH) | 64 | 33 | > 64 | > 33 | > 33 | > 64 | > 64 | 1 | 2 | > 1000 | > 3000 | > 33 | – | –
CC(C)C[C@@H](NC(=O)[C@H](C)NC(=O)CNC(=O)[C@@H](NC=O)C(C)C)C(=O)N[C@@H](C)C(=O)N[C@@H](C(=O)N[C@H](C(=O)N[C@@H](C(=O)N[C@@H](Cc1c[nH]c2ccccc12)C(=O)N[C@H](CC(C)C)C(=O)N[C@@H](Cc1c[nH]c2ccccc12)C(=O)N[C@H](CC(C)C)C(=O)N[C@@H](Cc1c[nH]c2ccccc12)C(=O)N[C@@H](C(=O)N[C@@H](Cc1c[nH]c2ccccc12)C(=O)NCCO)C(C)C)[C@H](C)O)C(C)C)C(C)C [B12] (For-VGA[dL]A[dV]V[dT]W[dL]W[dL]W[dV]W-NHCH2CH2OH) | 2 | 1.1 | 0.13 | – | 8.6 | 16 | 4 | – | 0.016 | 340 | > 3000 | – | 390 | 387 ± 90.9
CC(C)C[C@@H](NC(=O)[C@H](C)NC(=O)CNC(=O)[C@@H](NC=O)C(C)C)C(=O)N[C@@H](C)C(=O)N[C@@H](C(=O)N[C@H](C(=O)N[C@@H](C(=O)N[C@@H](Cc1c[nH]c2ccccc12)C(=O)N[C@H](CC(C)C)C(=O)N[C@@H](Cc1c[nH]c2ccccc12)C(=O)N[C@H](CC(C)C)C(=O)N[C@@H](Cc1c[nH]c2ccccc12)C(=O)N[C@H](CC(C)C)C(=O)N[C@@H](Cc1c[nH]c2ccccc12)C(=O)NCCO)C(C)C)C(C)C)C(C)C [compound 1, Gramicidin A] (For-VGA[dL]A[dV]V[dV]W[dL]W[dL]W[dL]W-NHCH2CH2OH) | 0.5 | 0.27 | 0.063 | 0.033 | 1.1 | 2 | 8 | 0.0083 | 0.016 | 4.86 | 160 | 4.3 | – | 5.81 ± 0.99
CC(C)C[C@@H](NC(=O)[C@H](C)NC(=O)CNC(=O)[C@@H](NC=O)C(C)C)C(=O)N[C@@H](C)C(=O)N[C@H](CC(C)C)C(=O)N[C@H](C(=O)N[C@H](CC(C)C)C(=O)N[C@@H](Cc1c[nH]c2ccccc12)C(=O)N[C@H](CC(C)C)C(=O)N[C@@H](Cc1c[nH]c2ccccc12)C(=O)N[C@@H](C(=O)N[C@@H](Cc1c[nH]c2ccccc12)C(=O)N[C@@H](C(=O)N[C@@H](Cc1c[nH]c2ccccc12)C(=O)NCCO)C(C)C)[C@H](C)O)C(C)C [B11] (For-VGA[dL]A[dL]V[dL]W[dL]W[dT]W[dV]W-NHCH2CH2OH) | 2 | 1.1 | 0.5 | 0.27 | 8.5 | 16 | 4 | 0.017 | 0.031 | 289 | 910 | – | – | 250 ± 57.7
